Data taken from BindingDB's records for doi:10.1016/j.bioorg.2016.06.001 (Tehran University of Medical Sciences, 2016).

Tests used:
Details in all cases: pH 8
[1] = biological target: Carboxylic ester hydrolase (Equus caballus, UniProt Q9N1N9); test: AChE and BChE Inhibition Assay
Method: (§1) In vitro AChEI activity was performed based on the modified Ellman's methodas previously reported by our group using a 96-well plate reader (BioTek ELx808). […] Each well contained 50 uL potassium phosphate buffer (KH2PO4/K2HPO4, 0.1 M, pH 8), 25 uL prepared sample as described above, 25 uL enzyme with final concentration of 0.22 U/mL in buffer. They were preincubated for 15 min at rt, and then 125 uL DTNB (3 mM in buffer) was added. […] The IC50 values were determined graphically from inhibition curves (log inhibitor concentration vs. percent of inhibition).

Acetylcholinesterase = Acetylcholinesterase (Electrophorus electricus, UniProt O42275); test: AChE and BChE Inhibition Assay
Method: as §1

[2] = AChE and BChE Inhibition Assay

Chain of Acetylcholinesterase (O42275 whole entry): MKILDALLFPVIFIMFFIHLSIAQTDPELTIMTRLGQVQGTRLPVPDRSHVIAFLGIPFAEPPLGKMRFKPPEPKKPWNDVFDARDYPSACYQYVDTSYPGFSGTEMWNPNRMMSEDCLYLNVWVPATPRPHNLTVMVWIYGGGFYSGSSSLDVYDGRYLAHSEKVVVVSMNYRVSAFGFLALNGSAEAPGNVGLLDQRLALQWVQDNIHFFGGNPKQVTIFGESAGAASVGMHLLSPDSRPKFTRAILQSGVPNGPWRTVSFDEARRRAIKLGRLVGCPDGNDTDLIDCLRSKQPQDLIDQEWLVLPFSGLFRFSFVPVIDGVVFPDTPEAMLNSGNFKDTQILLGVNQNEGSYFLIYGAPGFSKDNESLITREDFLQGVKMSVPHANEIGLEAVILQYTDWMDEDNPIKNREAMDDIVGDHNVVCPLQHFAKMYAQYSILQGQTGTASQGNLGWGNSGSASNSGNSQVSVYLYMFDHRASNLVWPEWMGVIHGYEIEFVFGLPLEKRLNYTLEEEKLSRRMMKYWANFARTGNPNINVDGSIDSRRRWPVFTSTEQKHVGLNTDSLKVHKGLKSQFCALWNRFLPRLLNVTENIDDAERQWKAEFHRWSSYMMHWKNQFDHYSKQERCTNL
Chain of Carboxylic ester hydrolase (Q9N1N9 whole entry): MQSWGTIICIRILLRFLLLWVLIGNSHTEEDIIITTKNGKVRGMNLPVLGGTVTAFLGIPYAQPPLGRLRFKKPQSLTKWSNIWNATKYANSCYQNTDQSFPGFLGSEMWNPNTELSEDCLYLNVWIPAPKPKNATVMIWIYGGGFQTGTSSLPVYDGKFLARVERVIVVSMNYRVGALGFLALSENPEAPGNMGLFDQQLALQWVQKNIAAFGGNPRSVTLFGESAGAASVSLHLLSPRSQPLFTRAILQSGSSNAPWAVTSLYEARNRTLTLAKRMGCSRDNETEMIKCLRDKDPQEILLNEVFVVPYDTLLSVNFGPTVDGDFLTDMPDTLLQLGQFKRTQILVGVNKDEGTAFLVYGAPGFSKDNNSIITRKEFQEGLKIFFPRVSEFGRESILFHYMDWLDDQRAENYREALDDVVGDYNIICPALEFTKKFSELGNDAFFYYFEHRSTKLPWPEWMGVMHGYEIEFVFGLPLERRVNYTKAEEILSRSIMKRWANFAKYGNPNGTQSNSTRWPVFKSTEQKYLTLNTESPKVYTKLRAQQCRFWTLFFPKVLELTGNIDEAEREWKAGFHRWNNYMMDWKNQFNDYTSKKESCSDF

Compound | IC50 [1] [µM] | IC50 (Acetylcholinesterase) [µM] | IC50 [2] [µM]
O=c1ccc2ccc(Oc3ccc(Nc4c5c(nc6ccccc46)CCC5)cc3)cc2o1 [7-(4-((2,3-Dihydro-1H-cyclopenta[b]quinolin-9-yl)amino)phenoxy)-2H-chromen-2-one (8a)] | > 100 | 83.1 | –
Cc1cc(=O)oc2cc(Oc3ccc(Nc4c5c(nc6ccccc46)CCCCC5)cc3)ccc12 [4-Methyl-7-(4-((7,8,9,10-tetrahydro-6H-cyclohepta[b]quinolin-11-yl)amino)phenoxy)-2H-chromen-2-one (8o)] | > 100 | 64.4 | –
O=c1ccc2ccc(Oc3ccc(Nc4c5c(nc6ccccc46)CCCCC5)cc3)cc2o1 [7-(4-((7,8,9,10-Tetrahydro-6H-cyclohepta[b]quinolin-11-yl)amino)phenoxy)-2H-chromen-2-one (8m)] | > 100 | > 100 | –
O=c1ccc2ccc(Oc3ccc(Nc4c5c(nc6ccccc46)CCCC5)cc3)cc2o1 [7-(4-((1,2,3,4-Tetrahydroacridin-9-yl)amino)phenoxy)-2H-chromen-2-one (8g)] | 28.7 | 19.1 | –
Cc1cc(=O)oc2cc(Oc3ccc(Nc4c5c(nc6ccccc46)CCC5)cc3)ccc12 [7-(4-((2,3-Dihydro-1H-cyclopenta[b]quinolin-9-yl)amino)phenoxy)-4-methyl-2H-chromen-2-one (8d)] | > 100 | 45.3 | –
Cc1cc(=O)oc2cc(Oc3ccc(Nc4c5c(nc6cc(Cl)ccc46)CCC5)cc3)ccc12 [7-(4-((6-Chloro-2,3-dihydro-1H-cyclopenta[b]quinolin-9-yl)amino)phenoxy)-4-methyl-2H-chromen-2-one (8e)] | > 100 | 16.2 | 7.99
O=c1ccc2ccc(Oc3ccc(Nc4c5c(nc6ccc(Cl)cc46)CCCC5)cc3)cc2o1 [7-(4-((7-Chloro-1,2,3,4-tetrahydroacridin-9-yl)amino)phenoxy)-2H-chromen-2-one (8i)] | > 100 | > 100 | –
Cc1cc(=O)oc2cc(Oc3ccc(Nc4c5c(nc6cc(Cl)ccc46)CCCCC5)cc3)ccc12 [7-(4-((3-Chloro-7,8,9,10-tetrahydro-6H-cyclohepta[b]quinolin-11-yl)amino)phenoxy)-4-methyl-2H-chromen-2-one (8p)] | > 100 | 31.8 | –
O=c1ccc2ccc(Oc3ccc(Nc4c5c(nc6cc(Cl)ccc46)CCCCC5)cc3)cc2o1 [7-(4-((3-Chloro-7,8,9,10-tetrahydro-6H-cyclohepta[b]quinolin-11-yl)amino)phenoxy)-2H-chromen-2-one (8n)] | > 100 | > 100 | –
O=c1ccc2ccc(Oc3ccc(Nc4c5c(nc6cc(Cl)ccc46)CCC5)cc3)cc2o1 [7-(4-((6-Chloro-2,3-dihydro-1H-cyclopenta[b]quinolin-9-yl)amino)phenoxy)-2H-chromen-2-one (8b)] | 11.6 | > 100 | –
Cc1cc(=O)oc2cc(Oc3ccc(Nc4c5c(nc6ccc(Cl)cc46)CCC5)cc3)ccc12 [7-(4-((7-Chloro-2,3-dihydro-1H-cyclopenta[b]quinolin-9-yl)amino)phenoxy)-4-methyl-2H-chromen-2-one (8f)] | > 100 | 36.7 | –
O=c1ccc2ccc(Oc3ccc(Nc4c5c(nc6cc(Cl)ccc46)CCCC5)cc3)cc2o1 [7-(4-((6-Chloro-1,2,3,4-tetrahydroacridin-9-yl)amino)phenoxy)-2H-chromen-2-one (8h)] | > 100 | > 100 | –
O=c1ccc2ccc(Oc3ccc(Nc4c5c(nc6ccc(Cl)cc46)CCC5)cc3)cc2o1 [7-(4-((7-Chloro-2,3-dihydro-1H-cyclopenta[b]quinolin-9-yl)amino)phenoxy)-2H-chromen-2-one (8c)] | > 100 | 38.5 | –
Cc1cc(=O)oc2cc(Oc3ccc(Nc4c5c(nc6ccc(Cl)cc46)CCCCC5)cc3)ccc12 [7-(4-(2-Chloro-7,8,9,10-tetrahydro-6H-cyclohepta[b]quinolin-11-ylamino)phenoxy)-4-methyl-2H-chromen-2-one (8q)] | > 100 | 54.1 | –
Cc1cc(=O)oc2cc(Oc3ccc(Nc4c5c(nc6ccc(Cl)cc46)CCCC5)cc3)ccc12 [7-(4-((7-Chloro-1,2,3,4-tetrahydroacridin-9-yl)amino)phenoxy)-4-methyl-2H-chromen-2-one (8l)] | > 100 | 30.8 | –
Cc1cc(=O)oc2cc(Oc3ccc(Nc4c5c(nc6cc(Cl)ccc46)CCCC5)cc3)ccc12 [7-(4-((6-Chloro-1,2,3,4-tetrahydroacridin-9-yl)amino)phenoxy)-4-methyl-2H-chromen-2-one (8k)] | 31.2 | 18 | –
Cc1cc(=O)oc2cc(Oc3ccc(Nc4c5c(nc6ccccc46)CCCC5)cc3)ccc12 [4-Methyl-7-(4-((1,2,3,4-tetrahydroacridin-9-yl)amino)phenoxy)-2H-chromen-2-one (8j)] | 38.6 | 22.1 | –
